# Reference: US8115014B2, “Ethynylindole compounds” (ONO Pharmaceuticals, Co., Ltd., priority 2008, dated 2012)
# Tests used:
# human cysLT1 receptor = molecular target: T1, human cysLT1 receptor (Homo sapiens, UniProt Q9Y271); test: Effects of compounds on LTD4-induced increase in intracellular calcium levels, CHO cells expressing the human cysLT1 receptor; format: cell-based; conditions: 100 nM LTD4, compound applied 30 minutes prior, read-out: IC50 (50% inhibitory concentration), LTD4-induced intracellular calcium influx
# T1 construct: expressed in transfected cells; host or cells: Chinese hamster ovary (CHO) cells
# T1 sequence (Q9Y271 1-337): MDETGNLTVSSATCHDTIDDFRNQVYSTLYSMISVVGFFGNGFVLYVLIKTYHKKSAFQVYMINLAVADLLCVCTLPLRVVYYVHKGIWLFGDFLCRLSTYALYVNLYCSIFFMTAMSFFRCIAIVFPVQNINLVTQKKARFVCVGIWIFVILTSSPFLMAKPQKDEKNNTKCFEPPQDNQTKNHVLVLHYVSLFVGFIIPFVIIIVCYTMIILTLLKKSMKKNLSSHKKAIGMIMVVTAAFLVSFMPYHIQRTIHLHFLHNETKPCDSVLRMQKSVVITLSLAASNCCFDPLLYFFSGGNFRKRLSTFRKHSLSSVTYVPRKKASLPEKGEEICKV
# Experimental: (§1) Chinese hamster ovary (CHO) cells expressing the human cysLT1 receptor were seeded at a density of 0.4×10^5 cells/well into a 96-well plate and cultured in an F-12 medium at 37° C. in the presence of 5% CO2 for 24 hours. The cells were incubated in the culture medium containing 7.5 μM Fura2-AM, 20 mM 2-[4-(2-hydroxyethyl)-1-piperazinyl]ethanesulfonic acid (HEPES) and 2.5 mM probenecid, at 37° C. for about 60 minutes. The Fura2-AM-loaded cells were washed once with assay buffer (Hank's buffer containing 20 mM HEPES), and the LTD4-induced intracellular calcium influx was measured using a FDSS2000 (manufactured by Hamamatsu Photonics K.K.). The compounds of the present invention were applied 30 minutes prior to LTD4 stimulation, and time-course changes of the response provoked by 100 nM of LTD4 was measured over 150 seconds.
# human cysLT2 receptor = molecular target: T2, human cysLT2 receptor (Homo sapiens, UniProt Q9NS75); test: Effects of compounds on LTD4-induced increases in intracellular calcium levels, HEK293 cells expressing the human cysLT2 receptor; format: cell-based; conditions: 100 nM LTD4, compound applied 30 minutes prior, read-out: IC50 (50% inhibitory concentration), LTD4-induced intracellular calcium influx
# T2 construct: expressed in transfected cells; host or cells: HEK293 cells
# T2 sequence (Q9NS75 1-346): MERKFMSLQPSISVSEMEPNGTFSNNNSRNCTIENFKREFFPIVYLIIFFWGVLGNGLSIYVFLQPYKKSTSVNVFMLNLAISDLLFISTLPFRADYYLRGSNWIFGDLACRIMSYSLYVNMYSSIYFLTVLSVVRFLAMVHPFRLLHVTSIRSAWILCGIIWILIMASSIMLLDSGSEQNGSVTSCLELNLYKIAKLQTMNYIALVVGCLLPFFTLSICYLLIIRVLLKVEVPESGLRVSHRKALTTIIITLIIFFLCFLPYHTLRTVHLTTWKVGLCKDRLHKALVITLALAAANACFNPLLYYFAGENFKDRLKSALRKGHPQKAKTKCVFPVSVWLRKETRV
# Experimental: as §1, with “The” for “Chinese hamster ovary (CHO) cells expressing the human cysLT1 receptor were seeded at a density of 0.4×10^5 cells/well into a 96-well plate and cultured in an F-12 medium at 37° C. in the presence of 5% CO2 for 24 hours. The”
SMILES,IC50 (human cysLT1 receptor) [nM],IC50 (human cysLT2 receptor) [nM]
"Cc1c(CCCC(=O)O)c2cccc(C#Cc3ccc(OCCCCc4cc(F)c(F)c(F)c4F)cc3)c2n1CC(=O)O [Example 11, 4-[1-(carboxymethyl)-2-methyl-7-({4-[4-(2,3,4,5-tetrafluorophenyl)butoxy]phenyl}ethynyl)-1H-indol-3-yl]butanoic Acid]",0.21,0.77
"Cc1c(CCCC(=O)O)c2cccc(C#Cc3ccc(OCCCCc4c(F)c(F)c(F)c(F)c4F)cc3)c2n1CCCC(=O)O [Example 9, 4,4′-[2-methyl-7-({4-[4-(pentafluorophenyl)butoxy]phenyl}ethynyl)-1H-indole-1,3-diyl]dibutanoic Acid]",1.1,2.8
"Cc1c(F)cccc1CCCCOc1ccc(C#Cc2cccc3c(CC4(CC(=O)O)CC4)c(C)n(CC(=O)O)c23)cc1 [Example 21 (2), [3-{[1-(carboxymethyl)cyclopropyl]methyl}-7-({4-[4-(3-fluoro-2-methylphenyl)butoxy]phenyl}ethynyl)-2-methyl-1H-indol-1-yl]acetic Acid]",0.24,2.9
"Cc1c(Cl)cccc1CCCCOc1ccc(C#Cc2cccc3c(CC4(CC(=O)O)CC4)c(C)n(CC(=O)O)c23)cc1 [Example 21 (1), (1-{[1-(carboxymethyl)-7-({4-[4-(3-chloro-2-methylphenyl)butoxy]phenyl}ethynyl)-2-methyl-1H-indol-3-yl]methyl}cyclopropyl)acetic Acid]",0.16,2.1
